Here are results for three molecules from patent publication US10472334B2, “Small molecules for inhibiting male fertility” (The University of North Carolina at Chapel Hill, priority 2014, dated 2019).

Read-outs that look alike come from different tables or passages of the source.

The assay has as its system human sperm motility. In words: Computer-assisted sperm analysis (CASA) of human sperm motility. The assay is classed as cell-based. The protocol:
In another embodiment, a computer-assisted sperm analysis (CASA) can be used as a live cell compound screen for determining the effect of compounds on human sperm motility. Additionally, to facilitate the IC50 evaluation of compounds using different ejaculates, reducing inter-assay variation due to differences in sperm quality in different semen samples, an index of relative motility inhibition (RMI) was developed.
This is calculated as: RMI=[% motility*VSL]; percentage of motile sperm (% motility) or the percentage of progressively motile sperm (% progressive motility, RPMI) multiplied by the straight-line velocity (VSL); the average velocity measured in a straight line from the beginning to the end of a track in μm/sec.
Normalized RMI can be calculated by dividing the RMI of each experimental condition by its respective DMSO control.
Computer-assisted sperm analysis (CASA) was used as a live cell compound screen for determining the effect of compounds on human sperm motility. Computer-assisted sperm analysis (CASA) was performed using the approach taught in Mitra et al., Biology of Reproduction, Vol. 82, p 491 (2010), to determine the parameters of the control versus compound-treated spermatozoa. The parameters measured are: average pathway velocity (VAP: the average velocity of the smoothed cell path in 1 m/sec), the straight-line velocity (VSL: the average velocity measured in a straight line from the beginning to the end of track in 1 m/sec), the curvilinear velocity (VCL: the average velocity measured over the actual point-to-point track of the cell in 1 m/sec), the lateral head amplitude (ALH: amplitude of lateral head displacement in 1 m), the beat cross-frequency (BCF: frequency of sperm head crossing the sperm average path in Hz), the straightness (STR: the average value of the ratio VSL/VAP in %), and the linearity (LIN: the average value of the ratio VSL/VCL in %). The sperm motility parameters are assessed in pre-warmed (37° C.) two- or four-chambered 20-mm Leja slides, loading 5 μL or 2 μL, respectively, of the samples in each chamber and immediately using CASA. This computerized measuring device included a phase-contrast microscope (Olympus CX41), a camera, a mini-therm stage warmer, an image digitizer, and a computer to store and analyze data. The software used for data analysis is the HTR Ceros 12.3 (Hamilton-Thorne Biosciences). A range of 13 to 20 fields are scanned from each chamber. Progressive cells had to have a minimum of 25 μm/sec VAP and 80% of STR.
To facilitate the IC50 evaluation of compounds using different ejaculates, reducing inter-assay variation due to differences in sperm quality in different semen samples, an index of relative motility inhibition (RMI) was developed. This is calculated as: RMI=[% motility*VSL]; percentage of motile sperm (% motility) or the percentage of progressively motile sperm (% progressive motility, RPMI) multiplied by the straight-line velocity (VSL); the average velocity measured in a straight line from the beginning to the end of a sperm track in μm/sec. Normalized RMI (RPMI) was calculated by dividing the RMI of each experimental condition by its respective DMSO control.
The analysis of sperm motility was carried out with computer-assisted sperm analysis (CASA) (Ceros version 12.3 software; Hamilton-Thorne), using the techniques taught in Mitra et al., Biology of Reproduction, Vol. 82, p 491 (2010).

For the molecule `CCOC(=O)CSc1nc(=O)c(NCC(=O)OC)n[nH]1` [Compound B4, methyl N-{3-[(2-ethoxy-2-oxoethyl)sulfanyl]-5-oxo-2,5-dihydro-1,2,4-triazin-6-yl}glycinate], where the note is “Homo sapiens, Sperm, read-out: CASA”, the IC50 is 11.4 µM.

On to `COC(=O)NNc1nc(Nc2ccc(NC(=O)OC)c(O)c2)nc(SCC(C)=O)n1` [EP012], for which the IC50 (Homo sapiens, Sperm, FIG. 10, RMI using % progressive motility, read-out: IC50 in terms of progressive motility) is approximately 3.4 µM.

B1: SEMG1: semenogelin protein that binds EPPIN and inhibits progressive motility of ejaculate spermatozoa (protein, UniProt P04279 24-462, looked up)
Semenogelin-1: QKGGSKGRLPSEFSQFPHGQKGQHYSGQKGKQQTESKGSFSIQYTYHVDANDHDQSRKSQQYDLNALHKTTKSQRHLGGSQQLLHNKQEGRDHDKSKGHFHRVVIHHKGGKAHRGTQNPSQDQGNSPSGKGISSQYSNTEERLWVHGLSKEQTSVSGAQKGRKQGGSQSSYVLQTEELVANKQQRETKNSHQNKGHYQNVVEVREEHSSKVQTSLCPAHQDKLQHGSKDIFSTQDELLVYNKNQHQTKNLNQDQQHGRKANKISYQSSSTEERRLHYGENGVQKDVSQSSIYSQTEEKAQGKSQKQITIPSQEQEHSQKANKISYQSSSTEERRLHYGENGVQKDVSQRSIYSQTEKLVAGKSQIQAPNPKQEPWHGENAKGESGQSTNREQDLLSHEQKGRHQHGSHGGLDIVIIEQEDDSDRHLAQHLNNDRNPLFT
The term EC50 denotes the concentration that produces a half-maximal response. Turning to B1, the IC50 (FIGS. 3 and 4, read-out: IC50, CASA, RMI (relative motility)) was approximately 9 µM. The EC50 (calculated EC50 value, read-out: EC50 for inhibiting sperm motility) is 8.8 µM.
